# Measurements reported in publication PMC6472001, “Phenolic Compounds from Humulus lupulus as Natural Antimicrobial Products: New Weapons in the Fight against Methicillin Resistant Staphylococcus aureus, Leishmania mexicana and Trypanosoma brucei Strains” (Molecules, 2019).
# Experiments:
# S. aureus T28.1 [1] = test: Kill curves; type: cell-based, Staphylococcus aureus
# Method: This experiment allowed following in time the effect of the product on a growing bacterial population, highlighting the bactericidal or bacteriostatic effect. Stock solutions of xanthohumol, desmethylxanthohumol and lupulone were prepared in DMSO 20 times more concentrated than the desired final concentrations (MIC/4 to 4xMIC). An aliquot of 0.5 mL of purified product in DMSO was added to 8.5 mL of brain heart infusion (BHI) medium (Oxoid, UK). 1 mL of bacterial suspension at 10^5 CFU/mL was then introduced to the culture tube. A 5% DMSO control served as a negative control and was performed at each test. Culture tubes were incubated at 37 °C for 24 h. Counts were made every 2 h until 8 h and at 24 h by plating aliquots of serial tenfold dilutions on MHA. The determined bacterial concentrations were then converted into log(CFU/mL) and were expressed as a function of time. The detection threshold of this method was 10 CFU/mL and 1 log(CFU/mL) on graphics.
# [2] = tested on: selected S. aureus strains; test: Broth microdilution MIC, range over strains; type: cell-based; details: Staphylococcus aureus; range over MRSA and MSSA strains of Table 3; read-out: MIC against selected S. aureus strains
# Method: (§1) The protocol employed was inspired by Abedini et al. with some modifications. Products were solubilized in DMSO and serially diluted two-fold in MH medium. A bacterial suspension at 10^5 CFU/mL was added to obtain a final volume of 200 µL. Final phenolic product concentrations in wells ranged from 625 to 2.4 µg/mL (exception for lupulone for which dilutions were continued until 0.3 µg/mL). […] Plates were incubated overnight with stirring (60 rpm) at 37 °C.
# MRSA strains = test: Broth microdilution MIC, range over strains; type: cell-based; details: Staphylococcus aureus, read-out: MICs towards MRSA strains
# Method: as §1
# S. aureus T28.1 biofilm = test: Anti-biofilm: biofilm formation on synthetic bone substitute; type: cell-based, Staphylococcus aureus; details: at MIC
# Method: β-Tricalcium phosphate discs (Cerasorb®, Curasan, Germany) were used as bone substitute. Non-glucose enriched BHI medium was used here, because the bacterial glucose metabolism causes an acidification of the culture medium which leads to the disintegration of the discs. Discs were introduced in a 24-well plate: 1.8 mL of BHI media were added with 0.1 mL of product in DMSO (5%) and 0.1 mL of a 10^5 CFU/mL bacterial suspension. Final concentrations of hop phenolic compounds were from MIC/4 to 4 × MIC. After 24 h at 37 °C, counts were performed in two steps. First, planktonic bacteria were counted from 100 µL of the culture supernatant by plating tenfold dilutions on MHA. Then, bacteria adhering to the discs were counted: discs were removed and washed with a CR solution, then, 10 mL of CR were added to each disk and treated 1 min by sonication (35 kHz) and 30 s by vortex. The obtained suspension was enumerated as previously. The detection threshold was also 1 log(CFU/mL).
# S. aureus T28.1 [3] = test: Post-antibiotic effect (PAE); type: cell-based, Staphylococcus aureus; details: for Maximum Growth Retardation: 2 h exposure
# Method: This method allows quantifying the delayed regrowth of a bacterial population following exposure to an active compound [76]. Stock solutions of xanthohumol, desmethylxanthohumol and lupulone were prepared in DMSO 20 times more concentrated than the desired final concentrations (MIC/4 to 4 × MIC). A 2 h pre-treatment with purified prenylated compounds was performed using 8.5 mL of BHI medium, 0.5 mL of purified product in DMSO and 1 mL of a bacterial suspension at 10^5 CFU/mL, incubated at 37 °C. […] The hop compound was then inactivated by a 1000-fold dilution. After inactivation, a growth curve was performed with counts at 30 min and every 2 h. The growth lag was quantified by comparison with the control, using the following formula: PAE=T−C
# T is the time needed for the bacterial population to grow by 1 log(CFU/mL) at the given concentration, C is the corresponding time for the control (Figure 5)
# humans = tested on: humans; set-up: method as in PMID 24038952; details: up to 180 mg in humans for a short intake; cited from earlier work
# mice = tested on: mice; set-up: method as in PMID 20427021; details: approximately 1000 mg/kg of body weight of mice; cited from earlier work
# [4] = tested on: human hepatocellular carcinoma; set-up: method as in PMID 18814205; details: cited from earlier work
# Plasmodium falciparum = tested on: Plasmodium falciparum; set-up: method as in PMID 15824094; details: cited from earlier work
# Leishmania amazonensis = tested on: Leishmania amazonensis; set-up: method as in PMID 27938439; details: cited from earlier work
# biofilm formation = tested on: biofilm formation; set-up: method as in PMID 24175280; details: at the MIC; cited from earlier work
# lung cell line = tested on: lung cell line; set-up: method as in PMID 26664015; details: cited from earlier work
Compound,MIC [2] [µg/mL],MIC (MRSA strains) [µg/mL],Biofilm formation on bone substitute discs (S. aureus T28.1 biofilm),Maximum Growth Retardation (S. aureus T28.1 [3]; 2 × MIC) [h],Maximum Growth Retardation (S. aureus T28.1 [3]; 4 × MIC) [h],Maximum Growth Retardation (S. aureus T28.1 [3]; MIC/2) [h],Maximum Growth Retardation (S. aureus T28.1 [3]; MIC) [h],also measured
"CC(C)=CCc1c(O)cc(O)c(C(=O)/C=C/c2ccc(O)cc2)c1O [DMX, desmethylxanthohumol]",19.5 to 39,19.5 to 39,significant decrease,2.29,2.34,2.10,2.32,"Bacterial population reached (detection threshold) (S. aureus T28.1 [1]; 2 × MIC, after 24 h): 1 log(CFU/mL)"
"COc1cc(O)c(CC=C(C)C)c(O)c1C(=O)/C=C/c1ccc(O)cc1 [XN, xanthohumol]",9.8 to 19.5,9.8 to 19.5,,2.05,3.29,1.34,2.23,"Safety in vivo (humans): good safety; Safety in vivo (mice): good safety; IC50 [4]: about 75 µg/mL; Decrease of the bacterial population (S. aureus T28.1 [1]; 2xMIC, first 4 h): around 3 log(CFU/mL); Decrease of the bacterial population (S. aureus T28.1 [1]; MIC/2, first 6 h): 0.5 log(CFU/mL); Decrease of the bacterial population (S. aureus T28.1 [1]; at the MIC, during 24 h): 2 log(CFU/mL); IC50 (Plasmodium falciparum): in the µM range; IC50 (Leishmania amazonensis): in the µM range; Inhibition of biofilm formation (biofilm formation): 86.5%; IC50 (lung cell line): ~100 µg/mL"
lupulone,,,significant decrease,,0.47,0.26,0.53,Reduction between the control and 2 × MIC (S. aureus T28.1 [1]; 2 × MIC): about 3 log(CFU/mL); Kill curve effect at 4 × MIC (S. aureus T28.1 [1]; 4 × MIC): slightly decreased the bacterial population; Maximum delay after inactivation (S. aureus T28.1 [3]; over all concentrations): ~55 min
